Data published in PubChem BioAssay (NCI).
Several values for one entry are separate records, joined by “and”; a condition that tells them apart may be missing. Identical values can stand only once.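 These data come from cells grown in 96-well plates and exposed to compound for 48 hours at five concentrations. GI50: concentration for 50% inhibition of growth. TGI: total growth inhibition.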

What was measured:
Experiment in all cases: NCI tumour cell line growth inhibition, 48 h
MOLT-4 leukemia = system: MOLT-4 leukemia
RXF 393 renal = system: RXF 393 renal
OVCAR-3 ovarian = system: OVCAR-3 ovarian
SW-620 colon = system: SW-620 colon
K-562 leukemia = system: K-562 leukemia
MALME-3M melanoma = system: MALME-3M melanoma
HCT-15 colon = system: HCT-15 colon
OVCAR-4 ovarian = system: OVCAR-4 ovarian
OVCAR-8 ovarian = system: OVCAR-8 ovarian
A498 renal = system: A498 renal

Structure (SMILES) | GI50 (MOLT-4 leukemia) | TGI (MOLT-4 leukemia) | GI50 (RXF 393 renal) | TGI (RXF 393 renal) | GI50 (OVCAR-3 ovarian) | TGI (OVCAR-3 ovarian) | GI50 (SW-620 colon) | TGI (SW-620 colon) | GI50 (K-562 leukemia) | TGI (K-562 leukemia) | GI50 (MALME-3M melanoma) | TGI (MALME-3M melanoma) | GI50 (HCT-15 colon) | TGI (HCT-15 colon) | GI50 (OVCAR-4 ovarian) | TGI (OVCAR-4 ovarian) | GI50 (OVCAR-8 ovarian) | TGI (OVCAR-8 ovarian) | GI50 (A498 renal) | TGI (A498 renal)
COc1ccc2[nH]c(=O)c3c4ccccc4cn3c2c1 | 0.399 µM | 2.23 µM | 0.312 µM | 1.09 µM | 0.253 µM | 0.608 µM | 0.319 µM | 1.39 µM | 0.276 µM | 1.33 µM | 0.911 µM | 2.48 µM | 0.31 µM | 1.4 µM | 0.532 µM | 2.78 µM | 1.09 µM | 3.29 µM | 0.383 µM | 4.83 µM
Cc1ccc(S(=O)(=O)N[C@H](C(=O)O)c2ccccc2)cc1 |  | > 100 µM |  | > 100 µM |  | > 100 µM |  | > 100 µM |  | > 100 µM |  | > 100 µM |  | > 100 µM |  | > 100 µM |  | > 100 µM |  | > 100 µM
COc1ccc(-c2cc(-c3cc(Cl)ccc3Cl)nc3n[nH]c(N)c23)cc1 | 30.9 µM | > 100 µM | 29.5 µM | > 100 µM | 8.82 µM | 61.9 µM | 8.16 µM | > 100 µM | 15.8 µM | > 100 µM | 46.8 µM | > 100 µM | 11.6 µM | > 100 µM | 15.6 µM | > 100 µM | 32 µM | > 100 µM | 21 µM | 57.5 µM
CCOC(=O)c1ccc2[nH]c(-c3ccc(S(=O)(=O)F)cc3)cc(=O)c2c1 |  | > 100 µM |  | > 100 µM |  | 50.3 µM |  | > 100 µM |  | > 100 µM |  | 90.6 µM |  | > 100 µM |  | > 100 µM |  | > 100 µM |  | 68 µM
CC[C@]12CCCN3CCc4c(n(c5ccccc45)C(=O)C1)[C@@H]32 |  | > 58.2 µM |  | 63.7 µM |  | 5.81 µM |  | > 65 µM |  | > 100 µM |  | > 67.9 µM |  | > 100 µM |  | > 76.3 µM |  | > 100 µM |  | > 65.9 µM
CC1CC[C@]2(C(=O)O)CCC3(COC(=O)/C=C\c4ccc(O)cc4)C(=CCC4[C@@]5(C)CC[C@H](O)C(C)(C)C5CC[C@]43C)[C@@H]2[C@H]1C (some centres undefined) |  | > 100 µM |  | 33.9 µM |  | 37.1 µM |  | > 100 µM |  | > 100 µM |  | 87.9 µM |  | > 100 µM |  | > 100 µM |  | 46.3 µM |  | 60.4 µM
CN(C)CCOc1ccc(-c2nc(-c3ccc4c(c3)CC/C4=N\O)c(-c3ccncc3)[nH]2)cc1 | 5.74 µM and 3.53 µM | 12.2 µM and 25.7 µM | 4.37 µM and 4.3 µM | 9.58 µM and 8.17 µM | 4.42 µM and 4.34 µM | 8.49 µM and 8.94 µM | 4.07 µM and 2.15 µM | 7.72 µM and 4.78 µM | 4.74 µM and 1.95 µM | 10.5 µM and 4.2 µM | 0.00596 µM and 0.0186 µM |  | 9.22 µM and 15.5 µM | 25 µM and 57.4 µM | 4.72 µM and 6.69 µM | 9.74 µM and 37.8 µM | 4.84 µM and 3.2 µM | 10.1 µM and 8.96 µM | 4.68 µM and 8.84 µM | 9.57 µM and 27.2 µM
CCNC(=O)[C@@H]1CCCN2C(=O)CC[C@H](NC(=O)[C@H](Cc3ccc(OP(=O)(O)O)cc3)NC(C)=O)C(=O)N12 | > 25 µM | > 25 µM | > 25 µM | > 25 µM | > 25 µM | > 25 µM | > 25 µM | > 25 µM | > 25 µM | > 25 µM | > 25 µM | > 25 µM | > 25 µM | > 25 µM | > 25 µM | > 25 µM | > 25 µM | > 25 µM | > 25 µM | > 25 µM
Cc1ccc([N+](=O)[O-])cc1NC(=O)Nc1cccc(F)c1 | 3.38 µM | > 100 µM | 18.4 µM | 61.2 µM | 3.25 µM | 11.7 µM | 4.66 µM | > 100 µM | 2.63 µM | 71.4 µM | 4.66 µM | 51.8 µM | 3.44 µM | > 100 µM | 3.96 µM | 51.9 µM | 4.24 µM | > 100 µM | 1.61 µM | 9.76 µM
COc1ccc2oc(=O)cc(C(c3ccc[nH]3)c3ccc[nH]3)c2c1 | 0.111 µM | 12 µM | 0.0902 µM | 0.44 µM | 0.0803 µM | 0.146 µM | 0.12 µM | 16.8 µM | 0.118 µM | 20.8 µM | 0.783 µM | 17.7 µM | 0.1 µM | 11.5 µM | 0.303 µM | 26.3 µM | 0.116 µM | 14.2 µM | 0.104 µM | 0.437 µM
Nc1c(C(=O)c2cccc(CCCN3CCOCC3)c2)cnn1-c1ccc(F)cc1 | > 25 µM | > 25 µM | > 25 µM | > 25 µM | > 25 µM | > 25 µM | > 25 µM | > 25 µM | > 25 µM | > 25 µM | > 25 µM | > 25 µM | > 25 µM | > 25 µM | > 25 µM | > 25 µM | > 25 µM | > 25 µM | > 17.6 µM | > 25 µM
CCCCON(OC(=O)c1ccccc1)C(=O)c1ccccc1 | 53.1 µM | > 100 µM | > 100 µM | > 100 µM | > 100 µM | > 100 µM | > 100 µM | > 100 µM | 93.4 µM | > 100 µM | > 100 µM | > 100 µM | > 100 µM | > 100 µM | > 100 µM | > 100 µM | > 100 µM | > 100 µM | > 100 µM | > 100 µM
C=C1C(=O)O[C@H]2[C@H]1CC/C(CNC(=O)Cc1c[nH]c3ccccc13)=C\CC[C@@]1(C)O[C@@H]21 | 1.83 µM | 5.75 µM | 1.3 µM | 5.65 µM | 0.386 µM | 1.44 µM | 0.352 µM | 1.37 µM | 0.337 µM | 11.1 µM | 3.42 µM | 7.39 µM | 1.58 µM | 13.1 µM | 1.74 µM | 15.7 µM | 1.12 µM | 12.4 µM | 13.8 µM | 26.9 µM
COc1cc(C(=O)/C=C/c2c(C)n([O-])c3ccc(C)cc3[n+]2=O)cc(OC)c1OC | 3.57 µM | > 29.8 µM | 1.89 µM | 3.91 µM | 3.11 µM | 7.1 µM | 1.53 µM | 3.02 µM | 2.8 µM | > 24.7 µM | 2.24 µM | 5.2 µM | 1.8 µM | 4.48 µM | 6.68 µM | 24 µM | 3.46 µM | > 56.4 µM | 14.5 µM | 38.6 µM
